# Experimental data published in patent US6545052B2, “Methods and compositions for inhibiting free radical polymerization in skin and hair” (Fan Tech, Ltd., priority 2000, dated 2003).
# Assay: free radical inhibition assay: inhibition of polymerization of acrylic acid to polyacrylic acid
# Conditions: for % Polymerization (after 3 hours at 85° C.): 30% acrylic acid in water, 200 ml, 0.6 ml of 1% inhibitor solution, initiated with azobisisobutyronitrile, remaining acrylic acid by iodine value
# Description: A presently preferred method for determining the free radical inhibitory capacity of a compound is based on the ability of such a compound to inhibit free radical polymerization of acrylic acid to polyacrylic acid. […] As will be appreciated, the amount of polyacrylic acid formed is inversely related to the amount of acrylic acid (i.e., monomer) remaining in the reaction mixture at the end of the assay. The amount of acrylic acid may be routinely determined by measuring the iodine value of the reaction mixture or by other methods known in the art for determinating unsaturation. A well-known free radical inhibitor compound such as hydroquinone mono methyl ether (HQMME) may be used as a standard inhibitor compound in the assay.
# Into each of three 250 ml beakers, labeled “1,” “2,” and “3” respectively, is added 200 ml of a 30% solution of acrylic acid (in water). One-tenth gram of 1,3-di(3-methoxybenzyl)thiourea was dissolved in 9.9 grams of isopropyl alcohol to give a 1% (w/w) solution of the free radical inhibitor compound. […] One-tenth gram of azobisisobutyronitrile (a free radical initiator) was dissolved in 9.9 grams of isopropyl alcohol to provide a 1% solution of the free radical initiator. To beaker 1, containing 200 ml of the acrylic acid solution was added 0.6 ml of the 1% solution of 1,3-di(3-methoxybenzyl)thiourea. To beaker 2, containing 200 ml of the acrylic acid solution was added 0.6 ml of the 1% solution of hydroquinone mono methyl ether. To beaker 3 was added 0.6 ml of isopropyl alcohol (no inhibitor). […] After 3 hours, the beakers were removed from the hot plate to stop the reaction from progressing further, and the amount of acrylic acid which remained in the reaction mixture was determined by measuring the iodine value of an aliquot of the reaction mixture using the A.O.C.S. Method Tg 1a-64T in Official Methods And Recommended Practices Of The AOCS, by American Oil Chemists' Society, Champaign, Ill.
SMILES,% Polymerization (after 3 hours at 85° C.) [%],"inhibition of the free radical polymerization reaction (in words) (assay of Example 10, 85° C., 3 hours)"
"COc1ccc(O)cc1 [hydroquinone mono methyl ether, reference compound]",78.6,
"COc1cccc(CNC(=S)NCc2cccc(OC)c2)c1 [1,3-di(3-methoxybenzyl)thiourea, 1,3-di-(3-methoxybenzyl) thiourea]",48.6,strongly inhibited
